This is an account of results in US3985761A, “Nitrothiazolyl derivatives of nitrostyrene” (priority 1974, dated 1976).

The subject of one experiment is Hymenolepsis nana. In words: Activity against tapeworms Hymenolepsis nana in mice. The class given is in vivo, Hymenolepsis nana (infected Albimo mice). To be noted: Mus musculus, po, 72 h, read-out: Activity: % of infected mice getting 100% clearance. The method, then: The anthelmintic properties of the products of the invention have been determined as follows:
Albimo mice of either sex (18-20 g.weight range) were administered by gavage 0.2 ml of the standard inoculum (containing 1000 viable eggs). 20 days later, the faecal matter was checked for Hymenolipis nana eggs. Mice showing the presence of H nana eggs were taken for experiments. They were classified on the weight basis. 5 animals were taken in each cage.
Compounds of the invention under investigation were suspended in 0.2% tragacanth. Concentrations were adjusted in such a way that 0.2 ml conformed to particular dosage schedule for each compound. They were administered by gavage in fasting condition in the morning on 21st day post infection, once daily for 3 consecutive days. For each set of test compound group, one cage of infected control mice was kept. These received saline for 3 days.
After 3 consecutive days of administration, all mice were kept fasting on the subsequent day (24th day post infection) and sacrificed on the 25th day. Results of surviving mice only have been taken. From each mouse, the whole intestine including caecum was collected in a petri dish with water. It was cut open longitudinally and was examined for adult worms and scolices. Absolute clearance of worms and scolices in individual mouse was taken as a criterion for assessing the results of each group.
The data on some of the compounds studied are represented in Table II

The next experiment has as its system plant pathogenic fungi. The settings on record: C.A. Vol. 62, 14569e; cited from earlier work.
A further experiment concerns Ps. aeruginosa. Put plainly: Antimicrobial serial dilution (MIC), P.a. The class given is cell-based. To be noted: Pseudomonas aeruginosa.
The test system of another experiment is Staph. aureus. Put plainly: Antimicrobial serial dilution (MIC), S.a. The class given is cell-based. The settings on record: Staphylococcus aureus.
In another experiment the test system is Proteus vulgaris ox 19. Put plainly: Antimicrobial serial dilution (MIC), Pr.ox. In kind it is cell-based. The settings on record: OX19.
Experiment [1] concerns antibiotic resistant Staph aureus. In words: Antimicrobial serial dilution (MIC), A/R S.a. In kind it is cell-based. The settings on record: Staphylococcus aureus, read-out: MIC A/R S.a.
For a further experiment, the system named is S.Shigae. Put plainly: microbe, parasite or virus in culture. To be noted: Shigella dysenteriae, read-out: MIC S.s. In kind it is cell-based.
For another experiment, the system named is S. typhi. In words: Antimicrobial serial dilution (MIC), S.t. In kind it is cell-based. The settings on record: Salmonella enterica.
The test system of another experiment is E.coli. In words: Antimicrobial serial dilution (MIC), E.c. In kind it is cell-based. To be noted: Escherichia coli.
Where [2] appears, read: 400 mg/kg/day × 3 days, gavage, surviving mice only.

Values after ≈ are worked out from the molar mass of the structure shown. Read-outs that look alike come from different tables or passages of the source.

Turning to `O=C(Nc1ccccc1)Oc1ccc(C=C[N+](=O)[O-])cc1`, in the experiment on Hymenolepsis nana, the responders at 350 mg/kg is 90%.
As for `Cc1ccc(NC(=O)Oc2ccc(C=C[N+](=O)[O-])cc2)cc1`, the responders at 400 mg/kg in the experiment with Hymenolepsis nana turned out to be 94%.
With `CCCCNC(=O)Oc1ccc(C=C(C)[N+](=O)[O-])cc1Cl`, the responders at 400 mg/kg in the experiment with Hymenolepsis nana (setting [2]) amounted to 100%.
Turning to `CC(=Cc1ccc(OC(=O)Nc2ccccc2)c(Cl)c1)[N+](=O)[O-]`, the responders at 400 mg/kg in the experiment on Hymenolepsis nana (setting [2]) turned out to be 100%.
`CC(=Cc1ccc(OC(=O)Nc2ccc(C)cc2)c(Cl)c1)[N+](=O)[O-]`: in the experiment on Hymenolepsis nana (setting [2]), the responders at 400 mg/kg turned out to be 100%.
`O=C(Nc1ccc(Br)cc1)Oc1cccc(C=C[N+](=O)[O-])c1`: the responders at 400 mg/kg in the experiment with Hymenolepsis nana came out at 100%.
Regarding `CC(=Cc1cccc(OC(=O)Nc2ccccc2)c1)[N+](=O)[O-]`, the responders at 400 mg/kg in the experiment with Hymenolepsis nana (setting [2]) was determined as 100%.
In the case of `CC(=Cc1cccc(OC(=O)Nc2ccc(C)cc2)c1)[N+](=O)[O-]`, the responders at 200 mg/kg in the experiment on Hymenolepsis nana (200 mg/kg/day × 3 days, gavage, surviving mice only) was determined as 100%.
`O=[N+]([O-])C=Cc1ccc(O)c([N+](=O)[O-])c1` [3-nitro-4-hydroxy-β-nitrostyrene]: in the experiment with plant pathogenic fungi, the “antifungal properties against plant pathogenic fungi” value is recorded as “antifungal properties against plant pathogenic fungi”.
Regarding `CC(=Cc1ccc(OC(=O)Nc2ccc(C)cc2)cc1)[N+](=O)[O-]` [drawing 3], the MIC with Ps. aeruginosa is at least 50 mg/L; in the experiment with Staph. aureus, 6.25 mg/L (≈ 20 µM); in the experiment on Proteus vulgaris ox 19, 6.25 mg/L (≈ 20 µM); in experiment [1], 6.25 mg/L (≈ 20 µM); in the experiment on S.Shigae it was 12.5 mg/L (≈ 40 µM); with S. typhi, 50 mg/L (≈ 160 µM). The molecule also gave an MIC in the experiment on E.coli of 6.25 mg/L (≈ 20 µM).
Turning to `CC(=Cc1ccc(OC(=O)Nc2ccc(Br)cc2)cc1)[N+](=O)[O-]` [drawing 4], the MIC in the experiment with Ps. aeruginosa is at least 50 mg/L; against Staph. aureus, 6.25 mg/L (≈ 16.6 µM); in the experiment with Proteus vulgaris ox 19, 6.25 mg/L (≈ 16.6 µM); in [1] it was 12.5 mg/L (≈ 33.1 µM); with S.Shigae, 6.25 to 12.5 mg/L (≈ 16.6 to 33.1 µM); in the experiment on S. typhi, at least 50 mg/L. Besides, in the experiment with E.coli, the MIC was determined as 6.25 mg/L (≈ 16.6 µM).
Turning to `CCCCNC(=O)Oc1ccc(C=C(C)[N+](=O)[O-])cc1` [drawing 5], the MIC with Ps. aeruginosa is at least 50 mg/L; in the experiment with Staph. aureus, 6.25 mg/L (≈ 22.5 µM); with Proteus vulgaris ox 19, 6.25 mg/L (≈ 22.5 µM); in experiment [1], 6.25 mg/L (≈ 22.5 µM); in the experiment with S.Shigae it was 12.5 mg/L (≈ 44.9 µM); with S. typhi, 50 mg/L (≈ 180 µM). The molecule also registered an MIC with E.coli of 6.25 to 12.5 mg/L (≈ 22.5 to 44.9 µM).
Turning to `CC(=Cc1ccc(OC(=O)NC2CCCCC2)cc1)[N+](=O)[O-]` [drawing 6], the MIC with Ps. aeruginosa was at least 50 mg/L; with Staph. aureus it was 3.12 mg/L (≈ 10.3 µM); with Proteus vulgaris ox 19, 6.25 to 12.5 mg/L (≈ 20.5 to 41.1 µM); in [1] it was 3.12 mg/L (≈ 10.3 µM); in the experiment on S.Shigae, 12.5 mg/L (≈ 41.1 µM); against S. typhi it was 50 mg/L (≈ 164 µM). The molecule also had an MIC in the experiment on E.coli of 6.12 to 12.5 mg/L (≈ 20.1 to 41.1 µM).
Consider `CC(=Cc1ccc(OC(=O)Nc2ccccc2)cc1)[N+](=O)[O-]` [drawing 7], for which the MIC was at least 50 mg/L in the experiment with Ps. aeruginosa; 6.25 mg/L (≈ 21 µM) against Staph. aureus; 12.5 mg/L (≈ 41.9 µM) in the experiment with Proteus vulgaris ox 19; 3.12 to 6.25 mg/L (≈ 10.5 to 21 µM) in experiment [1]; 6.25 mg/L (≈ 21 µM) in the experiment with S.Shigae; 50 mg/L (≈ 168 µM) in the experiment on S. typhi. Moreover, the MIC against E.coli was found to be 6.25 mg/L (≈ 21 µM).
With `CC(=Cc1cccc(O)c1)[N+](=O)[O-]` [drawing 8], the MIC in the experiment on Ps. aeruginosa is 50 mg/L (≈ 279 µM); against Staph. aureus it was 3.12 mg/L (≈ 17.4 µM); with Proteus vulgaris ox 19, 3.12 mg/L (≈ 17.4 µM); in experiment [1], 3.12 mg/L (≈ 17.4 µM); with S.Shigae, 3.12 mg/L (≈ 17.4 µM); against S. typhi it was 50 mg/L (≈ 279 µM). In the experiment with E.coli, this molecule showed an MIC of 3.12 mg/L (≈ 17.4 µM).
